In patent US4371534A, “N4-Substituted tetrahydro-1,2,4-oxadiazin-5-one derivatives having anticonvulsive activity and pharmaceutical compositions containing them” (Richter Gedeon Vegyeszeti Gyar RT., priority 1980, dated 1983):
Where two headings read alike, the source gives them in different places.

How the values were obtained:
[1] = tested on: mice (tonic, extensor spasm of the lower limbs); experiment: Maximum electroshock (MES), anticonvulsive activity; assay type: in vivo, CFLP (LATI) mice; details: Mus musculus, po, 1 h; 20 mg/kg p.o., one hour after administration; corneal electrode 20 mA, 0.2 sec; absence of tonic extensor spasm = protection
Method: The pharmaceutical activity of the new compounds according to the invention was tested by conventional animal tests. Tests were performed on CFLP (LATI) mice of both sexes weighing 18 to 22 g. each, in groups of 10. Test compounds were suspended in a 5% aqueous "Tween 80" solution and the suspension was administered orally, through a probe. When testing anticonvulsive activity 20 mg./kg. doses, while in the tests concerning neurotoxic activity 80 mg/kg. doses were employed. The induced effect was measured one hour after administration by the following methods: (a) Maximum electroshock (MES): According to the method of E. A. Swinyard et al. [J. Pharmacol. 106, 319 (1952)] test animals were shocked by a corneal electrode (20 mA, 0.2 sec.). On the stimulation 100% of the control animals reacted by a tonic, extensor spasm of the lower limbs. Absence of this phenomena was considered a protection due to the treatment.

[2] = tested on: mice (muscle coordination); experiment: Neurotoxic activity: muscle coordination (RR) on rotating rod; assay type: in vivo, CFLP (LATI) mice; details: 80 mg/kg p.o., one hour after administration; animals falling from rotating rod within 120 seconds, percentage of control animals
Method: (§1) The pharmaceutical activity of the new compounds according to the invention was tested by conventional animal tests. Tests were performed on CFLP (LATI) mice of both sexes weighing 18 to 22 g. each, in groups of 10. Test compounds were suspended in a 5% aqueous "Tween 80" solution and the suspension was administered orally, through a probe. When testing anticonvulsive activity 20 mg./kg. doses, while in the tests concerning neurotoxic activity 80 mg/kg. doses were employed. The induced effect was measured one hour after administration by the following methods:
Muscle coordination (RR) on mice
Change of the coordinated muscular movement was tested according to W. J. Kinnard and C. F. Carr [Brit. J. Pharmacol, 121, 354 (1957)], on a rotating rod (diameter: 20 mm., frequency: 12/min.). Normal trained animals are able to remain on the rotating rod for about 120 seconds.

[3] = tested on: mice (pentetrazole-induced clonic and tonic, extensor spasm); experiment: Inhibition of spasm induced by pentetrazole (PTT); assay type: in vivo, CFLP (LATI) mice; details: Mus musculus, po, 1 h, 20 mg/kg p.o., 125 mg/kg pentetrazole s.c., one hour
Method: as §1, with “methods: (b) inhibition of spasm induced by pentetrazole (PTT) According to the method of Cr. N. Everett and R. K. Richards [J. Pharmacol. Exp. Therap. 81, 402 (1944)] 125 mg./kg. of pentatrazole (pentamethylene tetrazole) were administrated to the animals subcutaneously. One hour after administration the animals were observed. Absence of the clonic spasm (Kl) and the tonic, extensor spasm of lower limbs (TE) was considered a protection due to the administration of test compounds.” for “methods:”

mice = experiment: Acute toxicity (LD50); assay type: in vivo; details: p.o., single doses, evaluation after 14 days, probit analysis
Method: as §1
Toxicity of the compounds was examined by administration of various single doses. Evaluation was made 14 days after administration. The LD50 -values were calculated on the basis of the number of animals that died in 14 days by probite analysis, by means of a TPA/101 computer.

[4] = absence of clonic spasm, read-out: PTT Cl
[5] = absence of tonic, extensor spasm of lower limbs, read-out: PTT TE

CCC1(c2ccccc2)NC(=O)N(C)C1=O (centres unmarked) [3-methyl-5-ethyl-5-phenylhydantoine, reference compound]
responders at 20 mg/kg [1]: 10% | RR (muscle incoordination) [2]: 50% | responders at 20 mg/kg [3, 4]: 0% | responders at 20 mg/kg [3, 5]: 50%

CCN1C(=O)CON(C(C)=O)C1c1ccccc1 (centres unmarked) [Example 4, 2-Acetyl-3-phenyl-4-ethyl-tetrahydro-1,2,4-oxadiazin-5-one]
responders at 20 mg/kg [1]: 0% | RR (muscle incoordination) [2]: 20% | responders at 20 mg/kg [3, 4]: 0% | responders at 20 mg/kg [3, 5]: 20%

CC(=O)N1OCC(=O)N(CO)C1c1ccccc1 (centres unmarked) [Example 5, 2-Acetyl-3-phenyl-4-hydroxymethyl-tetrahydro-1,2,4-oxadiazin-5-one]
responders at 20 mg/kg [1]: 60% | RR (muscle incoordination) [2]: 20% | responders at 20 mg/kg [3, 4]: 0% | responders at 20 mg/kg [3, 5]: 40%

CC(=O)OCN1C(=O)CON(C(C)=O)C1c1ccccc1 (centres unmarked) [Example 6, 2-Acetyl-3-phenyl-4-acetoxymethyl-tetrahydro-1,2,4-oxadiazin-5-one]
responders at 20 mg/kg [1]: 70% | RR (muscle incoordination) [2]: 40% | responders at 20 mg/kg [3, 4]: 0% | responders at 20 mg/kg [3, 5]: 60%

CC(=O)N1OCC(=O)N(CCl)C1c1ccccc1 (centres unmarked) [Example 7, 2-Acetyl-3-phenyl-4-chloromethyl-tetrahydro-1,2,4-oxadiazin-5-one]
responders at 20 mg/kg [1]: 40% | RR (muscle incoordination) [2]: 40% | responders at 20 mg/kg [3, 4]: 0% | responders at 20 mg/kg [3, 5]: 0%

CC(=O)N1OCC(=O)N(C)C1c1ccccc1 (centres unmarked) [Example 10]
responders at 20 mg/kg [1]: 40% | RR (muscle incoordination) [2]: 20% | responders at 20 mg/kg [3, 4]: 0% | responders at 20 mg/kg [3, 5]: 20%

CCCCCCN1C(=O)CON(C(C)=O)C1c1ccccc1 (centres unmarked) [Example 14]
responders at 20 mg/kg [1]: 0% | RR (muscle incoordination) [2]: 0% | responders at 20 mg/kg [3, 4]: 0% | responders at 20 mg/kg [3, 5]: 40%

CC(=O)N1OCC(=O)N(COC(=O)c2ccccc2)C1c1ccccc1 (centres unmarked) [Example 18]
responders at 20 mg/kg [1]: 40% | RR (muscle incoordination) [2]: 40% | responders at 20 mg/kg [3, 4]: 0% | responders at 20 mg/kg [3, 5]: 70%

COc1cc(C(=O)OCN2C(=O)CON(C(C)=O)C2c2ccccc2)cc(OC)c1OC (centres unmarked) [Example 19]
responders at 20 mg/kg [1]: 30% | RR (muscle incoordination) [2]: 0% | responders at 20 mg/kg [3, 4]: 0% | responders at 20 mg/kg [3, 5]: 0%

O=C1NC(=O)C(c2ccccc2)(c2ccccc2)N1 [diphenylhydantoine, reference compound]
responders at 20 mg/kg [1]: 90% | RR (muscle incoordination) [2]: 70% | LD50 (mice): 279 mg/kg | responders at 20 mg/kg [3, 4]: 0% | responders at 20 mg/kg [3, 5]: 80%
